In PubChem BioAssay AID1322 (NMMLSC, 2008):
Calls of active or inactive are those of the source. The rule behind the calls is not given here.

Target: Bcl-2-like protein 1 (Homo sapiens) (UniProt Q07817)
Assay: Bim-Bcl-XL interaction inhibitors, potency, dose response, biochemical, multiplexed, bead flow cytometry, human Bcl-XL (AID 1322); for inhibition: test concentration not given here
Settings: Bead-based flow cytometry, Bim peptide-Bcl-XL binding, MCF; for inhibition: active compounds read high

Bcl-2-like protein 1 (Homo sapiens), sequence (Q07817 whole entry, looked up): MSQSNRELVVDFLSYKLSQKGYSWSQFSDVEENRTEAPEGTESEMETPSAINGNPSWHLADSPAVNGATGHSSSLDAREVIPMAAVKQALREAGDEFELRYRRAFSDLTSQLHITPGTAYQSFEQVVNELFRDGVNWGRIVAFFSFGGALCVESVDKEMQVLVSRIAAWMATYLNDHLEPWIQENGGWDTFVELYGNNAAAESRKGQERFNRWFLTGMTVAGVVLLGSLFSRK

Structure (SMILES)	inhibition	outcome
COc1cc(OC)c([N+](=O)[O-])cc1/C=N/NC(=O)c1ccncc1	inactive	–
Fc1ccccc1-n1cc(-c2ccccc2)[nH]c1=S	inactive	–
CCCn1c(SCC(=O)Nc2ccccc2-c2ccccc2)nnc1-c1ccoc1C	inactive	–
COc1ccc(CC(=O)Nc2ccc3nc(C)sc3c2)cc1OC	inactive	–
CN(Cc1ccccc1)c1nc2c(c(=O)[nH]c(=O)n2C)n1C	inactive	–
COP(=O)(CC(=O)O)c1ccccc1 (stereo unspecified)	inactive	–
Cc1ccc(-c2cc(-c3ccccc3Cl)c(C#N)c(N)n2)o1	inactive	–
Cc1ccnc(NS(=O)(=O)c2ccc(NC(=O)c3c(-c4ccccc4Cl)noc3C)cc2)n1	inactive	–
Cc1cccc(-n2c(-c3ccncc3)n[nH]c2=S)c1	inactive	–
CCCCC(C(=O)OCC)C(N)Cc1ccc(F)cc1 (stereo unspecified)	–	inactive
CCN(CC)S(=O)(=O)c1cccc(C(=O)N/N=C/c2ccc(O)c(O)c2O)c1	inactive	–
O=C1CSc2ccc(C(=O)Nc3cccc(S(=O)(=O)Nc4ccc(Br)cc4)c3)cc2N1	inactive	–
CCOc1c(Cl)cc(CNc2ccc(N3CCCC3)cc2)cc1OC	inactive	–
Cc1c(NC2=C(Cl)C(=O)N(c3ccccc3Cl)C2=O)c(=O)n(-c2ccccc2)n1C	inactive	–
O=S1(=O)N=C(N(CCO)/N=C/c2ccncc2)c2ccccc21	inactive	–
COc1ccc(CN(C)CC(=O)NC(C)c2ccccc2)c(OC)c1 (stereo unspecified)	inactive	–
Nc1ccc(-c2cn3cccnc3n2)cc1	–	inactive
CNC(=S)N/N=C/C1=CCC2CC1C2(C)C (stereo unspecified)	inactive	–
Cc1ccccc1OCC(=O)N/N=C/c1ccccn1	inactive	–
Cc1cc(Cl)ccc1N=c1ssnc1Cl	inactive	–
O=C(CSc1nnc(-c2ccccc2)c(-c2ccccc2)n1)N1CCc2ccccc21	inactive	–
CNC(=O)c1c(N)sc2c1CCCCC2	inactive	–

Structure (SMILES)	inhibition	outcome
CNc1ccc(Br)cc(C(=O)/C=C/c2cccc(OC)c2)c1=O	inactive	–
COc1ccc(C2CC(=O)C3=C(C2)Nc2ccccc2NC3c2coc3ccccc3c2=O)cc1OC (stereo unspecified)	inactive	–
CCOC(=O)/C(=C\c1ccc(Cl)cc1)c1nc2sc(C)c(C)c2c(=O)[nH]1	inactive	–
CCN(CC)c1ccc(NC(=O)c2ccccc2)cc1S(=O)(=O)Nc1ccccc1OC	inactive	–
CCCCOC(=O)c1nc(Cl)c(Cl)c(N)c1Cl	inactive	–
O=C(Nc1ccc2nc(-c3ccco3)c(-c3ccco3)nc2c1)N1CCCCCC1	inactive	–
Cc1cc(C)c2nc3nc(C)cc(C)c3c(N)c2c1	inactive	–
O=C1C=C(Nc2ccccc2)C(=O)c2ccccc21	inactive	–
COc1ccc(COC(=O)NNC(=O)c2ccccc2Cl)cc1	inactive	–
CNc1ccccc(C(=O)/C=C/c2ccccc2OC)c1=O	inactive	–
O=C(CSc1nc2ccsc2c(=O)n1Cc1ccc(C(=O)O)cc1)NCC1CCCO1 (stereo unspecified)	inactive	–
CC(C)(C)c1nc(NCCN2CCOCC2)c2nnn(Cc3ccccc3Cl)c2n1	inactive	–
O=C(c1cc2ccccc2oc1=O)N(c1ccccc1)C1C=CS(=O)(=O)C1 (stereo unspecified)	inactive	–
Cn1c(CNc2nc(-c3ccccc3)cs2)nnc1SCC(=O)N1CCc2ccccc21	inactive	–
COc1cccc2c(SCC(=O)N/N=C/c3ccccc3)cc(C)nc12	inactive	–
FC(F)(F)c1ccc2c(c1)C1C=CCC1C(c1ccncc1)N2 (stereo unspecified)	–	inactive
c1ccc2c(N3CCOCC3)nc(N3CCOCC3)nc2c1	inactive	–
CC1Cc2ccccc2N1C(=O)CSc1nnnn1-c1ccc2c(c1)OCCO2 (stereo unspecified)	inactive	–
COc1ccc(C)cc1Nc1ccc(C(=O)O)cc1[N+](=O)[O-]	–	inactive
CCCCOc1ccc(Cc2c(Cl)nc(SC)nc2N2CCOCC2)cc1	inactive	–
Nc1c(C(=O)NCc2ccco2)sc2nc3c(cc12)C(=O)CCC3	inactive	–
COc1cc(N=c2ssnc2Cl)cc(OC)c1OC	inactive	–

Structure (SMILES)	inhibition	outcome
O=C(/C=C/c1ccc(-c2ccccc2)o1)c1ccccc1	inactive	–
COc1ccc2nc(-c3ccco3)c(-c3ccco3)nc2c1	inactive	–
O=C(Nc1ccncc1)c1cc2ccccc2o1	inactive	–
O=C(c1ccccc1NS(=O)(=O)c1ccc(Br)s1)N1CCCC1	inactive	–
COc1cc(N2CCOCC2)ccc1C=C1C(=O)NC(=O)NC1=O	inactive	–
CC(CCc1ccccc1)NC(=O)C1CCN(S(=O)(=O)N2CCCCC2)CC1 (stereo unspecified)	inactive	–
O=C(Nc1ccc(Cl)cn1)Nc1ccccc1F	inactive	–
Cc1ccc(S(=O)(=O)N2CCCCC2)cc1NC(=O)COC(=O)c1ccccc1F	inactive	–
O=C(Nc1ccccc1)c1ccc2nc(-c3ccco3)c(-c3ccco3)nc2c1	inactive	–
CCOC(=O)c1nc(Nc2ccc(N3CCC(C)CC3)cc2)c2ccccc2n1	–	inactive
Cc1ccc(-n2[nH]c(C)c(/C=N/Nc3ccc([N+](=O)[O-])cc3[N+](=O)[O-])c2=O)cc1C	inactive	–
CC1(C)CC(NC(=O)COc2ccc([N+](=O)[O-])cc2)CC(C)(C)N1	inactive	–
COc1ccccc1NC(=O)CSc1nnc(-c2ccco2)n1Cc1ccco1	inactive	–
COC(=O)CSc1ncnc2c1sc1nc(-c3ccco3)c3c(c12)CC(C)(C)OC3	inactive	–
CC1CCN(C2(O)C(=O)Nc3ccc(Br)cc32)CC1 (stereo unspecified)	–	inactive
COC(=O)c1c(NC(=O)COc2ncnc3ccccc23)sc(C)c1C	inactive	–
O=C(CSc1nnc(Cc2ccccc2)o1)NCc1ccco1	inactive	–
O=C(OCC(=O)c1ccc[nH]1)c1ccccc1	inactive	–
Cc1cccc(N2C(S)=C(C#N)C(=O)NC2c2cccs2)c1 (stereo unspecified)	inactive	–
CN1C2C=C3C(C#N)=C(N)C(C#N)(C#N)[C@@H](c4ccsc4)[C@@H]3C1CC2 (stereo partly specified)	inactive	–
Cc1ccc(NC2=C(NC(=O)c3ccccc3)C(=O)c3ccccc3C2=O)cc1Cl	inactive	–
COC(=O)C1C2c3ccccc3OC1(C)N=c1s/c(=C/c3cnn(C)c3C)c(=O)n12 (stereo unspecified)	inactive	–

Structure (SMILES)	inhibition	outcome
O=C(N/N=C/c1ccc(O)c(O)c1O)/C(=C/c1ccc([N+](=O)[O-])cc1)NC(=O)c1ccccc1	inactive	–
CN(C)c1ncc(C2=C(Cl)C(=O)C(N3CCCC3)=C(Cl)C2=O)s1	inactive	–
O=C(c1ccccc1)c1ccc2nc(-c3ccco3)c(-c3ccco3)nc2c1	–	inactive
O=C(COc1ccccc1)Nc1ccc2c(c1)Cc1cc(NC(=O)COc3ccccc3)ccc1-2	inactive	–
Cc1csc(Nc2ccccc2C(F)(F)F)n1	inactive	–
O=C(CCCN1C(=O)c2cccc3cccc(c23)C1=O)N1CCN(c2ccccn2)CC1	–	inactive
COc1ccccc1N(C)S(=O)(=O)c1ccc(C(=O)OCC(N)=O)cc1	–	inactive
Cc1nn(-c2ccc(Cl)cc2)c(Cl)c1/C=C(\C#N)C(N)=O	inactive	–
CNc1ccc(Br)cc(C(=O)/C=C/c2cc(OC)ccc2OC)c1=O	inactive	–
CCOC(=O)C1(Cc2cccc(OC)c2)CCN(Cc2cccc(OC)c2OC)CC1	–	inactive
COc1cc(N=c2ssnc2Cl)c(OC)cc1Cl	inactive	–
CCOC(=O)C1=C(Cc2ccc(OC)cc2)C(=O)c2ccccc2C1=O	inactive	–
Cc1cc2nn(-c3cccc4ccccc34)nc2cc1N	inactive	–
Cc1ccc(Nc2nc(CSc3nnc(-c4cccnc4)n3-c3ccccc3C)cs2)cc1	inactive	–
C1=CC2c3ccccc3NC(c3ccncc3)C2C1 (stereo unspecified)	inactive	–
C/C(=C\c1ccco1)C1Nc2cccc3cccc(c23)N1	inactive	–
CCOC(=O)c1ccc(N=c2ssnc2Cl)cc1	–	inactive
O=C(OCc1cnc(Cl)s1)c1cccc(Cl)c1Cl	inactive	–
O=C(NCCO)c1ccc2nc(-c3ccco3)c(-c3ccco3)nc2c1	inactive	–
Cc1ccc(NS(=O)(=O)c2cc(NC(=O)c3ccc4c(c3)NC(=O)CS4)ccc2C)c(C)c1	inactive	–
Cc1ccc(-c2ccc(CCC(=O)O)n2NC(=O)c2cccs2)cc1	inactive	–
O=C(NCc1ccccc1)c1ccc2nc(-c3ccco3)c(-c3ccco3)nc2c1	inactive	–

Structure (SMILES)	inhibition	outcome
COC(=O)c1ccc(-n2nnnc2SCC(=O)Nc2cc(OC)ccc2OC)cc1	inactive	–
CC1N(C)c2cccc3cccc(c23)N1C	inactive	–
O=C(CSc1nnc(-c2ccco2)n1Cc1ccccc1)c1ccccc1	inactive	–
Clc1ccc2c(N/N=C/c3ccc(Br)cc3)ccnc2c1	–	inactive
CCN1CCN(c2ccc(NC(=O)c3cccc4ncccc34)cc2)CC1	inactive	–
COc1ccc(Cl)cc1-n1c(C)cc(C=O)c1C	inactive	–
CCC(=O)NC(c1ccc(C)cc1)c1cc([N+](=O)[O-])c2cccnc2c1O (stereo unspecified)	inactive	–
COc1cc(/C=C2/NC(=O)N(Cc3ccccc3F)C2=O)ccc1O	–	inactive
COc1ccc(/C=C2\SC(=O)NC2=S)cc1OC	inactive	–
Cc1cc(NC(=O)CCCC(=O)NCc2ccccc2)no1	inactive	–
Cc1cccc(NC(=S)N2CCn3cccc3C2c2cccnc2)c1 (stereo unspecified)	inactive	–
S=C(NCCc1ccccc1)NCCc1ccccc1	inactive	–
COc1ccc(OC)c(Nc2ccc(C(=O)O)cc2[N+](=O)[O-])c1	–	inactive
CCOc1cc(/C=N/NC(=O)c2cccs2)cc([N+](=O)[O-])c1O	inactive	–
CCOC(=O)C1=C(CC)Nc2ccccc2N=C1NC(=O)c1ccc(S(=O)(=O)N2CCOCC2)cc1	–	inactive
O=C(OCc1nc2ccccc2[nH]1)C12CC3CC(CC(C3)C1)C2	inactive	–
COCCN=c1scc(-c2ccco2)n1/N=C/c1ccc(O)c(O)c1O	–	inactive
O=[N+]([O-])c1ccc2[nH]nc(-c3ccccc3)c2c1	–	inactive
